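Results reflect a 48-hour exposure of cells in 96-well plates to compound at five concentrations. At the GI50, growth is halved.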 The source made the active and inactive calls. Cut-off read from the data, not from the text of the source: active = GI50 up to about 1.1 µM and inactive = higher.
How the values were obtained:
Experiment in all cases: NCI anticancer screen, dose series, 48 h
[1] = system: IGROV-1
[2] = system: K562
[3] = system: PC-3
[4] = system: HCT-116
[5] = system: SK-MEL-5
[6] = system: OVCAR-8
[7] = system: A549
[8] = system: MCF7
[9] = system: COLO 205
[10] = system: SK-OV-3
[11] = system: SF-295
[12] = system: UACC-257
[13] = system: M14
[14] = system: HT-29
[15] = system: SR
[16] = system: CCRF-CEM
[17] = system: OVCAR-3
[18] = system: HOP-62
[19] = system: SF-268
[20] = system: CAKI-1
[21] = system: RXF 393
[22] = system: NCI-H522
[23] = system: HCT-15
[24] = system: NCI/ADR-RES
[25] = system: HL-60
[26] = system: Malme-3M
[27] = system: Hs-578T
[28] = system: OVCAR-4
[29] = system: RPMI-8226
[30] = system: SK-MEL-28
[31] = system: HOP-92
[32] = system: SNB-19
[33] = system: SW-620
[34] = system: MDA-MB-231
[35] = system: 786-0
[36] = system: HCC 2998
[37] = system: KM12
[38] = system: NCI-H460
[39] = system: SK-MEL-2
[40] = system: OVCAR-5
[41] = system: TK-10
[42] = system: NCI-H226
[43] = system: SNB-75
[44] = system: ACHN
[45] = system: EKVX
[46] = system: MOLT-4

## Cc1ccc(NC(=O)c2cc3ccccc3c(/N=N\c3ccccc3O)c2O)c(C)c1
[1]
  GI50: 1140 nM (inactive)
[2]
  GI50: 3090 nM (inactive)
[3]
  GI50: 1630 nM (inactive)
[4]
  GI50: 664 nM (active)
[5]
  GI50: 1030 nM (active)
[6]
  GI50: 859 nM (active)
[7]
  GI50: 2250 nM (inactive)
[8]
  GI50: 2160 nM (inactive)
[9]
  GI50: 3020 nM (inactive)
[10]
  GI50: 1860 nM (inactive)
[11]
  GI50: 863 nM (active)
[12]
  GI50: 4750 nM (inactive)
[13]
  GI50: 839 nM (active)
[14]
  GI50: 3130 nM (inactive)
[15]
  GI50: 373 nM (active)
[16]
  GI50: 818 nM (active)
[17]
  GI50: 370 nM (active)
[18]
  GI50: 1030 nM (active)
[19]
  GI50: 687 nM (active)
[20]
  GI50: 1190 nM (inactive)
[21]
  GI50: 3670 nM (inactive)
[22]
  GI50: 1010 nM (active)
[23]
  GI50: 614 nM
[24]
  GI50: 1540 nM (inactive)
[25]
  GI50: 1140 nM (inactive)
[26]
  GI50: 809 nM (active)
[27]
  GI50: 1640 nM (inactive)
[28]
  GI50: 1630 nM (inactive)
[29]
  GI50: 1780 nM (inactive)
[30]
  GI50: 5090 nM (inactive)
[31]
  GI50: 2950 nM (inactive)
[32]
  GI50: 1200 nM (inactive)
[33]
  GI50: 1690 nM (inactive)
[34]
  GI50: 2000 nM (inactive)
[35]
  GI50: 1320 nM (inactive)
[36]
  GI50: 5060 nM (inactive)
[37]
  GI50: 1450 nM (inactive)
[38]
  GI50: 440 nM (active)
[39]
  GI50: 2980 nM (inactive)
[40]
  GI50: 3100 nM (inactive)
[41]
  GI50: 5310 nM (inactive)
[42]
  GI50: 2820 nM (inactive)
[43]
  GI50: 53 nM (active)
[44]
  GI50: 1880 nM (inactive)
[45]
  GI50: 2750 nM (inactive)
[46]
  GI50: 1250 nM (inactive)
